# Measured values published in PMC10076671, “Spider venom-derived peptide JZTX-14 prevents migration and invasion of breast cancer cells via inhibition of sodium channels” (Frontiers in Pharmacology, 2023).
# Entries after “also recorded” stand apart in the source; their conditions may differ. Where a SMILES comes first, the peptide text is derived from it. Bridges are numbered along the chain shown (N, C = ends).
# Legend:
# MDA-MB-231 cells [1] = assay: Quantitative real-time PCR validation of migration and invasion-related genes; assay type: cell-based, human; settings: JZTX-14-treated MDA-MB-231 cells
# MDA-MB-231 cells [2] = assay: Transwell assay (cell migration/invasion); assay type: cell-based, human; settings: 24 h incubation, crystal violet staining
# Experimental: Cell migration assay was performed using 24-well transwell plate (Corning, United States). 5×10^4 cells/well were seeded in the upper chamber in DMEM/F12 medium containing 0.1% BSA, the lower chamber contained DMEM/F12% and […]. After 24 h incubation, the cells on the filter membrane were washed three times with PBS, then fixed with 4% paraformaldehyde for 30 min and stained with 0.1% crystal violet for 20 min. The cells on the filter were observed by microscopy and the number of cells was determined using the quantification software ImageJ.
# MDA-MB-231 cells [3] = assay: RNA sequencing, differentially expressed genes; assay type: cell-based, human; settings: 12.5 μM, 48 h
# Experimental: Total RNA was extracted from untreated (C) MDA-MB-231 cells and MDA-MB-231 cells treated with a concentration of 12.5 μM JZTX-14 (GL) for 48 h using TRIzol reagent. RNA concentration was first quantified using a NanoDrop 2000 spectrophotometer and further accurately quantified using an Agilent 2100/4200 for RNA sample mass and concentration. The extracted total RNA was stored at −70°C. The sample mRNA was enriched with magnetic beads with Oligo (dT), and then the mRNA was broken into short fragments which subsequently used as a template to synthesize the first strand of cDNA with six-base random primers. The second cDNA strand was synthesized by adding buffer, dNTPs, and enzymes, and the acquired double-stranded cDNA was purified, end-repaired, A-tailed, and connected to sequencing junctions. Next, the fragment size was selected and the cDNA library was enriched by PCR amplification, followed by accurate qualification of the effective concentration of the library using qPCR. […]
# The reads after rRNA removal were compared with the reference genome using Hisat2 software. Gene level quantification was performed separately for each sample using FeatureCount and combined to obtain the gene expression matrix of all samples. Correlation coefficients between samples were calculated based on the expression values (FPKM) of genes in each sample. […]
# MDA-MB-231 cells [4] = assay: Western blot analysis of EMT markers; assay type: cell-based, human; settings: compared to controls
# Experimental: Cells treated with different concentrations of JZTX-14 were lysed with RIPA lysis solution and samples were collected. Protein concentrations were determined by BCA assay kit (Biosharp, China) and denatured by adding SDS loading buffer (Bio-Bad, United States) followed by boiling. Equal amounts of total protein lysates were subjected to SDS-PAGE and transferred to PVDF membrane (Merck Millipore, United States), 5% BSA was used for blocking (1 h). Primary antibody (Nav1.5, E-cadherin, GAPDH and Vimentin antibody for Proteintech; N-cadherin for Immunoway) was incubated overnight at 4°C, secondary antibody (Abbkine, China) was incubated for 1 h at room temperature and the membrane was visualized by chemiluminescence.
# MDA-MB-231 cells [5] = assay: Scratch wound assay (cell migration); assay type: cell-based, human; settings: 12.5 μM, DMEM/F12 containing 0.2% BSA
# Experimental: The MDA-MB-231 cells were seeded into a six-well plate at an appropriate density to form a single layer of cells. After 12 h, a sterile 200 μl pipette tip was used to produce a linear scraping wound, which was cultured with DMEM/F12 containing 0.2% BSA and different concentrations of inhibitors. The cells were imaged at 0 h, 24 h and 48 h, after scratch induction. ImageJ software was used to analyze the images and quantify cell migration.
# MDA-MB-231 cells [6] = assay: Hoechst 33342/PI double staining assay; assay type: cell-based, human; settings: 0, 6, 12.5 μM; 48 h
# Experimental: The cells were seeded in a 6-well plate, and after their adherence to the plate, the medium was changed with a complete medium containing different concentrations of inhibitors. After 48 h of treatment, the cells were washed three times with 4°C cold PBS, and incubated with 5 μl/ml Hoechst 33,342 for 15 min. The cells were washed again three times using PBS and incubated with 5 μl/ml PI for 15 min.
# Nav1.5 = settings: HEK293 cells heterologously expressing Nav1.5; ref Zhang et al., 2018; cited from earlier work
# MDA-MB-231 cells [7] = assay: CCK-8 cell proliferation assay; assay type: cell-based, human
structure (smiles),measurement,setting,value
"CC[C@H](C)[C@H](NC(=O)[C@@H]1CSSC[C@@H]2NC(=O)[C@@H]3CCCN3C(=O)[C@@H]3CCCN3C(=O)[C@H](CCC(N)=O)NC(=O)CNC(=O)[C@@H]3CCCN3C(=O)[C@H](Cc3c[nH]cn3)NC(=O)[C@@H]3CSSC[C@H](NC(=O)[C@H](C)NC(=O)[C@H](CC(C)C)NC(=O)CNC(=O)[C@H](CO)NC(=O)[C@H](CSSC[C@H](NC(=O)CN)C(=O)N[C@@H](CCC(N)=O)C(=O)N[C@@H](CCCCN)C(=O)N[C@@H](Cc4ccccc4)C(=O)N[C@@H](Cc4ccccc4)C(=O)N[C@@H](Cc4c[nH]c5ccccc45)C(=O)N[C@@H]([C@@H](C)O)C(=O)N3)NC2=O)C(=O)N[C@@H]([C@@H](C)O)C(=O)N[C@@H](Cc2c[nH]c3ccccc23)C(=O)N2CCC[C@H]2C(=O)N[C@@H]([C@@H](C)O)C(=O)N[C@@H](CCC(=O)O)C(=O)N[C@@H]([C@@H](C)CC)C(=O)N1)C(=O)N[C@@H](CC(C)C)C(N)=O [JZTX-14] (H-GCQKFFWTCHPGQPPCCSGLACTWPTEICIL-NH2; disulfide 2-17, 9-22, 16-29)",ANGPTL4 expression (qPCR),MDA-MB-231 cells [1],downregulated
same,FBXO2 expression (qPCR),MDA-MB-231 cells [1],downregulated
same,GJB3 expression (qPCR),MDA-MB-231 cells [1],downregulated
same,HMGN5 expression (qPCR),MDA-MB-231 cells [1],downregulated
same,IL-24-F expression (qPCR),MDA-MB-231 cells [1],upregulated
same,PLAC1 expression (qPCR),MDA-MB-231 cells [1],downregulated
same,S100A4 expression (qPCR),MDA-MB-231 cells [1],downregulated
same,SERPINB2 expression (qPCR),MDA-MB-231 cells [1],upregulated
same,Inhibition of cell invasion (transwell),MDA-MB-231 cells [2]; 6 μM,50%
same,Inhibition of cell invasion (transwell),MDA-MB-231 cells [2]; 12.5 μM,75%
same,Downregulated genes associated with migration and invasion,MDA-MB-231 cells [3],"ANGPTL4, S100A4, GJB3, FBXO2, PLAC1, and HMGN5"
same,Upregulated genes associated with migration and invasion,MDA-MB-231 cells [3],IL-24-F and SERPINB2
same,E-cadherin expression level (western blot),MDA-MB-231 cells [4]; epithelial marker,significantly increased
same,MMP2 expression level (western blot),MDA-MB-231 cells [4]; matrix metalloproteinase,decreased
same,N-cadherin expression level (western blot),MDA-MB-231 cells [4]; mesenchymal marker,decreased
same,Vimentin expression level (western blot),MDA-MB-231 cells [4]; mesenchymal marker,decreased
same,Inhibition of migration (scratch assay),MDA-MB-231 cells [5]; 24 h,72%
same,Inhibition of migration (scratch assay),MDA-MB-231 cells [5]; 48 h,80%
same,Apoptosis and necrosis (Hoechst 33342/PI staining),MDA-MB-231 cells [6],no apoptosis and necrosis; also recorded: no significant effect on the necrosis
same,Inhibition of Nav1.5 function,Nav1.5,effectively inhibits
same,Cell survival rate (CCK-8),"MDA-MB-231 cells [7]; 1.5, 3, 6, 12.5, 25, 50, and 100 μM, 24 h, OD 450 nm",did not affect the survival rate
same,Cell survival rate (CCK-8),"MDA-MB-231 cells [7]; 25, 50, and 100 μM, 48 h, not statistically different compared to the control group",slightly reduced the survival rate
